# In patent US11118211B2, “Methods for the design of mechanism-based sirtuin activating compounds” (CHAKRABARTI ADVANCED TECHNOLOGY LLC, priority 2015, dated 2021):
# Like-named read-outs stand apart in the source and are kept apart here.
# How the values were obtained:
# [1] = biological target: T1, recombinant human SIRT3 (Homo sapiens, UniProt Q9NTG7); assay: High-throughput fluorimetric initial rate / endpoint assay of SIRT3 deacetylation with fluorolabeled p53 peptide; type: biochemical
# T1 construct: purchased Enzo Life Sciences AK 557
# T1 sequence (Q9NTG7 1-399): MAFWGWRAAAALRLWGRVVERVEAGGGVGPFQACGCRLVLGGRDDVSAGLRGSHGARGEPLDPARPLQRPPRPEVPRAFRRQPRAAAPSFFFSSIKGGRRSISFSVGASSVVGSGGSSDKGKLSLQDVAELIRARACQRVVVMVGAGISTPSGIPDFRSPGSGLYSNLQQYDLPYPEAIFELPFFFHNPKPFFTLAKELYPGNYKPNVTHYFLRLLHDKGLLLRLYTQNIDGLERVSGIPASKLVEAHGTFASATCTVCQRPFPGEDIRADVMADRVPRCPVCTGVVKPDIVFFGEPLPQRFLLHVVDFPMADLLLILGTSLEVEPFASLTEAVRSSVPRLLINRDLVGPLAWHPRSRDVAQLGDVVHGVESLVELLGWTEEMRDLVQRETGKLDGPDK
# Protocol: The specified concentration of the test compound was chosen to be 50 uM. Initial deacylation rates at DHP-1's were measured at varying [NAD+] and [NAM] according to the following methods.
# The steady state parameters (Km and kcat) and catalytic efficiency (kcat/Km) of deacetylase activity of recombinant human SIRT3 were determined using a fluorimetric assay. The deacetylation activities were measured by using the SIRT3 Fluorimetic Drug Discovery Kit (AK 557, Enzo Life Sciences). This assay system allows detection of a fluorescent signal upon deacetylation of an acetylated substrate peptide, comprising amino acids 317-320 of human p53 (Gln-Pro-Lys-LysAc) for SIRT3, when treated with developer. The intensity of fluorescence was measured on a fluorometric microplate reader (Fluoroskan AscentH FL, Thermo Lab Systems) with excitation set at 355 nm and emission detection set at 460 nm. The initial rate of the NAD^+-dependent deacetylation activity of SIRT3 enzyme was measured at different concentrations of NAD^+. The reactions were carried out at 37° C. in a 50 μl reaction volume containing 50 mM Tris/Cl (pH=8), 137 mM NaCl, and 250 uM fluorolabeled peptide substrate. Reactions carried out in the presence of DHP-1 included 5% DMSO. The raw data were fitted to the Michaelis-Menten equation and defined inhibition models by using GraphPad Prism (GraphPad Software, Inc, CA) to obtain the kinetic constants. […] In assays of allosteric modulators, artifacts reported in the presence of the fluorescent label were later shown to occur due to the hydrophobic fluorophore participating in the modulator's allosteric activation mechanism.
# This assay was used to measure the potency of modulation of SIRT3 by DHP-1 in a high-throughput endpoint format. All reagents are diluted on ice in the following reaction buffer: 50 mM Tris/Cl, pH 8.0, 137 mM NaCl, 2.7 mM KCl, 1 mM MgCl2, and 1 mg/mL BSA. Thus for each reaction well, 5U of SIRT3 enzyme is added to 500 μM NAD^+, 250 μM fluorolabeled peptide substrate, and DHP-1 at a given concentration (0-100 uM) in a total reaction volume of 50 μL. After an hour incubation at 37° C., the reaction is stopped upon addition of 1× Developer for a final reaction volume of 100 μL. The reaction is incubated at 37° C. for an additional 15 min and then read on the plate reader. Positive controls contained only enzyme, substrate, NAD^+, and DMSO while background controls contained substrate, NAD^+, and DMSO only.
# [2] = Thermodynamic solubility measurement by HPLC in HDAC buffer / DMSO; type: physicochemical; conditions: for solubility at 48 h: 24.5 °C, thermodynamic from solid, ambient (24-25° C.); for thermodynamic solubility (in words): solubility protocol of b230
# Protocol: DHP-1 in up to 20% DMSO/HDAC was insoluble. In brief, HPLC (Agilent 1100 series) was used to perform the test. Calibration curves were established using concentration range covering the estimated solubility's. The samples were then analyzed by a well-calibrated HPLC method. The linearity was measured by R-values at least >0.99. The estimated detection limit was around 0.002 mg/mL (2 μg/mL) based on acceptable N/S ratio. Over saturated samples were prepared by dosing excess compounds into the solvent mixtures of interest. The samples were equilibrated at ambient (24-25° C.) for 48 hours and then analyzed by the same HPLC method.
# [3] = biological target: T2, Human Sirt3 protein (Homo sapiens, UniProt Q9NTG7); assay: Binding analysis by microscale thermophoresis (MST); conditions: 5% DMSO, 25° C.
# T2 construct: hexa-histidine (N); host or cells: E. coli Arctic Express (DE3)
# T2 sequence (Q9NTG7 102-399): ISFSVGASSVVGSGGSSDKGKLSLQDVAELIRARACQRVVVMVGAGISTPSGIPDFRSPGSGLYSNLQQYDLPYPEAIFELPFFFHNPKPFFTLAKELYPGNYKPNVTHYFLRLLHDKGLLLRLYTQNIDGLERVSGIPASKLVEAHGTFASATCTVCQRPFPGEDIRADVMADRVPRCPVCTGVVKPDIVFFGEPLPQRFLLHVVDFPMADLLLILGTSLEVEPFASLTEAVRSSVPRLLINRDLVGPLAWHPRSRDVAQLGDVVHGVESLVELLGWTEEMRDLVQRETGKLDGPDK
# Protocol: Human Sirt3 protein was labeled with Alexa647 fluorophore by NHS ester chemistry in 20 mM HEPES, 200 mM NaCl, 0.5 mM TCEP at pH 7.5. A 2:1 molar excess of reactive dye was used over protein, in order to preferentially label one lysine within the protein. Free dye was removed using a size exclusion column and the labeled protein (Sirt3 NT647) was buffer exchanged into 50 mM Tris-HCl pH 8.0, 137 mM NaCl, 2.7 mM KCl, 1 mM MgCl2, 5% DMSO, 0.05% Pluronic F-127. A final concentration of 2 nM Sirt3 NT647 was titrated with varying concentrations of the modulator and thermophoresis was measured (excitation wavelength 650 nm, emission wavelength 670 nm, LED-power 15%, laser-power 80%) using a Monolith NT. 115 Pico (NanoTemper Technologies) at 25° C. in the absence and presence of various concentrations of NAD+, acetylated and de-acetylated peptide (K122-MnSOD peptide). Dissociation constants were determined with GraFit7 (Erithacus Software) by nonlinear fitting using a 1:1 binding model. Each experiment was repeated at least twice.
# [4] = biological target: T2, Human Sirt3 protein; assay: Label-free HPLC endpoint assay of Sirt3 deacetylation activity (DHP-1, DHP-2; FdL/p53 peptide); type: biochemical; conditions: for % product formation / % Sirt3 Activity: 50 uM DHP-1 in 5% DMSO; for % Sirt3 Activity: control = 100.0
# Protocol: Reactions for DHP-1 used a similar protocol, but were carried out at a single concentration of modulator and varying concentrations of NAD+ and fluorolabeled peptide at 37° C. in a 50 μl reaction volume containing 50 mM Tris/Cl (pH=8), 137 mM NaCl, and 5% DMSO. [DHP] was 50 uM.
# [5] = biological target: T3, Sir2Af2 (Archaeoglobus fulgidus, UniProt O30124); conditions: cited from earlier work
# T3 sequence (O30124 1-253): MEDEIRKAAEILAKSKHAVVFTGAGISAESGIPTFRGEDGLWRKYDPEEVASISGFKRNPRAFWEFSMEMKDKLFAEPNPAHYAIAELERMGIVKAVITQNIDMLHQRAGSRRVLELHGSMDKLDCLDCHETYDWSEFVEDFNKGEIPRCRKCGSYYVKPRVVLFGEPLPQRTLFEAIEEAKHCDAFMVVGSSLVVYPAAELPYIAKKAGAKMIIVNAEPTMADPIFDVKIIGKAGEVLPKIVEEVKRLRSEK
# [6] = 2% DMSO in HDAC buffer, aqueous buffer, 2% DMSO/HDAC
# [7] = 5% DMSO in HDAC buffer, aqueous with cosolvent or surfactant or cyclodextrin, 5% DMSO/HDAC
# [8] = 100 uM NAD + 100 uM FdL Peptide
# [9] = 200 uM NAD + 100 uM FdL Peptide
# [10] = 500 uM NAD + 250 uM FdL Peptide
compound,measurement,setting,value
"NC(=O)c1ccncc1 [isonicotinamide, reference compound]",outcome of hit identification,"[1]; same sirtuin enzyme and peptide substrate, competitive inhibitor of base exchange",screened out
"C=CCc1ccc(O)c(-c2ccc(O)c(CC=C)c2)c1 [Honokiol, 5,3′-Diallyl-2,4′-dihydroxybiphenyl, reference compound]",solubility at 48 h,[2]; [6],41 µg/mL
same,solubility at 48 h,[2]; [7],120 µg/mL
same,Kd,"[3]; read-out: Kd, binding to SIRT3 apoenzyme",1.01 ± 0.129 µM
same,Kd,"[3]; read-out: Kd, binding to the enzyme:NAD+ complex",1.67 ± 0.125 µM
"O=C(O)C1=CN(Cc2ccccc2)C=C(C(=O)O)C1c1ccccc1 [DHP-2, N-Benzyl-3,5-dicarboxy-4-phenyl-1,4-dihydropyridine]",solubility at 48 h,[2]; [6],1740 µg/mL
same,solubility at 48 h,[2]; [7],2140 µg/mL
same,solubility at 48 h,"[2]; 10% DMSO in HDAC buffer, aqueous with cosolvent or surfactant or cyclodextrin, 10% DMSO/HDAC",2200 µg/mL
same,solubility at 48 h,"[2]; aqueous buffer, 100% HDAC buffer",2300 µg/mL
same,thermodynamic solubility (in words),[2],thermodynamically soluble
same,SIRT3 activation in label-free assay,"[4]; 3 μM NAD+ and 250 μM peptide substrate, 0-400 μM DHP-2, threshold vapp/v=1.10",does not activate SIRT3
same,"rate enhancement versus predicted for Km,NAD+ reduction (x = 0.7, 0.8, 0.9)","[4]; any concentration tested, label-free assay (FIG. 8 vs FIG. 10)",does not induce a rate enhancement exceeding those predicted
"NC(=O)c1cccnc1 [NAM, nicotinamide]","ΔGbind,NAM",[5],-4.1 kcal/mol
"CCOC(=O)C1=CN(Cc2ccccc2)C=C(C(=O)OCC)C1c1ccccc1 [DHP-1, N-Benzyl-3,5-dicarbethoxy-4-phenyl-1,4-dihydropyridine]","Alpha (apparent, best-fit value)","[1]; 50 uM DHP-1, global fit of mixed inhibition model, varying NAD+ and NAM",1.933
same,"Vmax (apparent, best-fit value)","[1]; 50 uM DHP-1, global fit of mixed inhibition model, varying NAD+ and NAM, 250 uM fluorolabeled peptide",0.2118
same,net effect on catalytic turnover (vapp versus v),[1]; fluorimetric assays,vapp>v
same,thermodynamic solubility (in words),[2],thermodynamically insoluble
same,Solubility,[2]; up to 20% DMSO/HDAC,insoluble
same,SIRT3 activation in label-free assay,"[4]; 50 uM DHP-1, conditions of Table 2, threshold vapp/v=1.10",does not activate SIRT3
same,% product formation,[4]; [8],5.776%
same,% Sirt3 Activity,[4]; [8],96.7%
same,% product formation,[4]; [9],9.463%
same,% Sirt3 Activity,[4]; [9],92.3%
same,% product formation,[4]; [10],2.111%
same,% Sirt3 Activity,[4]; [10],99.5%
